# Measured values published in patent publication US6171786A, “Methods for preventing multidrug resistance in cancer cells” (priority 1996, dated 2001).
# Entries after “also recorded” stand apart in the source; their conditions may differ. Read-outs that look alike come from different tables or passages of the source.
# What was measured:
# MDR1 expression [1] = test: Inhibition of cytotoxic drug-induced MDR1 expression by cytoplasmic calcium antagonists and calmodulin inhibitors; format: cell-based, human; details: H9; 200 μM TMB-8
# tumor [2] = details: cited from earlier work
# tumor [3] = details: nude mice, cited from earlier work
# MDR1 expression [4] = test: Inhibition of AraC-induced MDR1 expression by phospholipase C inhibitors (RT-PCR); format: cell-based, human; details: up to 100 μg/mL D609
# Protocol: The inhibitor was added 45 min. prior to the addition of Ara C. Negative control cultures were incubated as above without the addition of either AraC or U73122.
# The specificity of phospholipase C-targeted inhibition of MDR1 induction by cytotoxic drugs was determined in a comparative experiment using a known inhibitor of […] phospholipase C (PC-PLC).
# PC-PLC = details: Wiegmann et al., 1994; cited from earlier work
# MDR1 expression [5] = test: Inhibition of cytotoxic drug-induced MDR1 expression by protein kinase inhibitors (cDNA-PCR)
# Protocol: (§1) Cells were plated in 6-well Falcon tissue culture plates at 3,300 cells per well, and incubated in the appropriate concentrations of drugs. Each of the protein kinase inhibitors to be tested were added at the appropriate final concentration 45 minutes prior to MDR1 induction by the addition of Ara-C or TPA, with the exception of herbimycin A, which was added 12 hours prior to Ara-C or TPA, and tyrphostins A25 and B46, which were each added 16 hours prior to MDR1 induction by the addition of Ara-C or TPA. Cells were incubated overnight (TPA) or for 10 hours (Ara-C) at 37° C./ 5% CO2 after the addition of the MDR1 inducing agents before harvesting for cDNA-PCR analysis.
# In addition, the analysis of certain drugs imposed added requirements. For experiments using calphostin C, cells were incubated under direct white light illumination. For experiments using D,L-threo-sphingosine, the cell culture medium was pre-treated with the appropriate concentration of the drug for one hour at 37° C. with continuous gentle mixing. After this pretreatment, cells were resuspended in media supplemented with drug and incubated for 45 minutes as described above.
# To further evaluate the capacity of protein kinase inhibitors to suppress MDR1 induction by cytotoxic drugs and PKC agonists, H-9 human T-cell leukemia cells were used in cDNA-PCR assays to examine induced MDR1 mRNA expression levels in the presence of protein kinase inhibitors.
# PKC = details: in words; cited from earlier work
# protein kinases = details: Pelosin et al., 1990; cited from earlier work
# [6] = tested on: MDR1 expression (P-glycoprotein); test: MDR1/P-glycoprotein expression in human cells treated with TPA, DOG, other agents (Rh123 accumulation, UIC2 staining, cDNA-PCR); format: cell-based
# Protocol: KG1 cell line was maintained in Iscove's modified Dulbecco medium with 20% fetal calf serum (FCS) and 2 mM L-glutamine, 100 units/mL penicillin and 100 μg/mL streptomycin (GIBCO Laboratories, Grand Island, N.Y.).
# (§2) PBL were treated with 1 ng/mL TPA; H9 and K562 cells with 10 ng/mL TPA; KG1a and KG1 cells with 100 ng/mL TPA and the other cell lines with 10 ng/mL TPA.
# Mouse IgG2a isotype control antibody was obtained from Sigma. For staining of PBL with UIC2 mAb or isotype control, 10^6 cells were stained at 4° C. with 10 μg of the antibody for 30 minutes and, after two washes, stained for 30 minutes with 10 μg of FITC-conjugated goat anti-mouse IgG2a antibody (Fisher Scientific, Fairlawn, N.J.), diluted 1:2 with PBS plus 2% FCS. Cells were then washed twice with ice-cold PBS plus 2% FCS, stained with PI and kept on ice until analysis. Essentially the same protocol was used for staining of other cell types except that 2 μg of the secondary antibody were used per 10^6 cells. In some experiments, phycoerythrine (PE)-conjugated goat anti-mouse IgG2a was used as the secondary antibody; no PI was added in such cases.
# (§3) (Commercially-available kits (for example, from GIBCO/BRL, Gaithersburg, Md.) can be advantageously modified for making cDNA using random hexamers.) PCR is then performed using the following primers: […]
# (§4) (where β2 M represents β2 microglobulin). PCR was performed for β2 M experiments under a regime consisting of 1 cycle comprising denaturation at 94° C. for 3 minutes, primer annealing at 60° C. for 30 seconds, and primer extension at 72° C. for 1 minute, followed by 19 cycles comprising denaturation at 94° C. for 30 seconds, primer annealing at 60° C. for 30 seconds, and primer extension at 72° C. for 1 minute, followed by a final cycle comprising denaturation at 94° C. for 30 seconds, primer annealing at 60° C. for 30 seconds, and primer extension at 72° C. for 5 minutes. MDR1 cDNA sequences were amplified using the identical protocol as for β2 M, but extending the amplification from 19 cycles to 25 cycles. In addition, the cDNA-PCR amplification protocol contained the following modifications: (i) Taq DNA polymerase was added to the PCR mixtures after initial heating of the samples to 94° C. (ii) The yield of the β2 -microglobulin-specific band, obtained after 22-28 cycles of PCR, was used as the primary criterion for equalizing the starting amounts of the cDNA templates in different preparations, in order to account for differential RNA degradation in cells subjected to different types of treatment. ^32 P-labeled PCR products were detected by autoradiography.
# A functional assay was used to detect changes in P-glycoprotein activity in human PBL treated with different agents that induce lymphoid differentiation or activation, based on flow cytometric analysis of cellular accumulation of Rh123, which is a P-glycoprotein-transported fluorescent mitochondrial dye. In this assay, cells expressing little or no P-glycoprotein stain brightly with Rh123, whereas cells with higher levels of P-glycoprotein activity appear Rh123-dull. […] Since the best-known cellular effect of TPA is the stimulation of PKC, DOG (a cell-permeable diacylglycerol and a physiological stimulant of PKC) was also tested to determine its effects on Rh123 accumulation in PBL.
# [7] = tested on: MDR1 expression (P-glycoprotein); test: MDR1/P-glycoprotein expression in mouse hematopoietic cell lines; format: cell-based
# Protocol: as §2
# Since PBL comprise a heterogeneous population of many different subtypes, a series of leukemia-derived clonal cells lines were tested for changes in P-glycoprotein expression after treatment with TPA.
# MDR1 expression [8] = details: cited from earlier work
# MDR1 expression [9] = test: Inhibition of TPA- or DOG-induced MDR1 expression; format: cell-based, human; details: staurosporine 30 nM
# Protocol: as §2, §1
# MRP expression = test: Inhibition of MRP mRNA expression in H-9 cells (cDNA-PCR); format: cell-based, human; details: 100 nM
# Protocol: Cells were plated in 6-well Falcon tissue culture plates at 3,300 cells per well, and incubated in the appropriate concentrations of drugs. Each of the protein kinase inhibitors to be tested were added at their appropriate final concentrations, and the cells then incubated for 10 hours at 37° C. under an atmosphere of 5% CO2.
# PCR was performed using the following primers: […]
# (where β2 M represents β2 microglobulin). PCR was performed for β2 M experiments under a regime consisting of 1 cycle comprising denaturation at 94° C. for 3 minutes, primer annealing at 60° C. for 30 seconds, and primer extension at 72° C. for 1 minute, followed by 19 cycles comprising denaturation at 94° C. for 30 seconds, primer annealing at 60° C. for 30 seconds, and primer extension at 72° C. for 1 minute, followed by a final cycle comprising denaturation at 94° C. for 30 seconds, primer annealing at 60° C. for 30 seconds, and primer extension at 72° C. for 5 minutes.
# H-9 cells were used to analyze the effect of various protein kinase inhibitors on the expression of the multidrug resistance associated protein MRP (Grant et al., ibid.).
# [10] = tested on: MDR1 expression (P-glycoprotein); test: Induction of MDR1 expression by cytotoxic drugs (dye efflux, UIC2, cDNA-PCR); format: cell-based, human
# Protocol: as §3, §4
# In particular PKC is activated by treatment with Ara-C. Therefore, experiments were performed to test whether Ara-C, which is not transported by P-glycoprotein, would have any effect on P-glycoprotein function in K562 leukemia cells.
# (§5) Also assayed was whether drug-induced MDR1 expression was maintained after cytotoxic drug treatment. […] At different times, MDR1 expression in the surviving cells was analyzed by dye efflux and immunofluorescence labeling with UIC2 (FIG. 3C) or by cDNA-PCR (FIG. 4E).
# K562 cells = tested on: K562 cells
# Protocol: FIG. 6A. Growth inhibition by vinblastine in untreated and Ara-C (ARA)- or Adriamycin (ADR)-treated cells. Cells were treated as in FIG. 3C and grown in the absence of drugs for six weeks. Vinblastine inhibition assay was carried out for 10 days.
# FIG. 6B. Growth inhibition by vinblastine in untreated cells and Rh123-dull and Rh123-bright populations of Ara-C treated cells. […] One week after sorting, vinblastine inhibition assay was carried out for 7 days.
# Cells were plated in duplicate in 96-well microtiter plates at 3,000 cells per well, and allowed to grow in increasing concentrations of different drugs.
# as §5
compound,measurement,setting,value
"8-(dimethylamino)octyl-3,4,5-trimethoxybenzoate hydrochloride [TMB-8]",inhibition of AraC-induced MDR1 gene expression,MDR1 expression [1],completely abrogate the ability of AraC to induce MDR1 gene expression
"CCN(CC)CCN1C(=O)c2c(c3c4cccc(Cl)c4n([C@@H]4O[C@H](CO)[C@@H](OC)[C@H](O)[C@H]4O)c3c3[nH]c4c(Cl)cccc4c23)C1=O [BMY 27557, 8-N-(diethylaminoethyl) rebeccamycin]",optimal total i.p. dose,tumor [2]; nine injections at 12 mg/kg/injection,108 mg/kg
same,optimal single i.p. dose,tumor [2]; single dose,64 mg/kg
CO[C@@H]1[C@H](N(C)C(=O)c2ccccc2)C[C@H]2O[C@]1(C)n1c3ccccc3c3c4c(c5c6ccccc6n2c5c31)C(=O)NC4 [CGP 41 251],dose showing anti-tumor effect relative to MTD,"tumor [3]; Meyer et al., 1989",anti-tumor effect at one-tenth of their maximum tolerated doses
"S=C(S)OC1CC2CC1C1CCCC21 (stereo not shown) [D609, tricyclodecan-9-yl-xanthogenate potassium]",inhibition of AraC-induced expression of MDR1,MDR1 expression [4],without an effect; also recorded: incapable of inhibiting AraC-induced expression of MDR1
same,concentration known to inhibit PC-PLC,PC-PLC,100 µg/mL
N=C(N)NCCNS(=O)(=O)c1cccc2cnccc12 [HA1004],inhibition of MDR1 induction by cytotoxic drugs,MDR1 expression [5],totally ineffective
same,PKC inhibition,PKC,inactive against PKC
CC1CN(S(=O)(=O)c2cccc3cnccc23)CCN1 (stereo not shown) [Iso-H7],inhibition of Ara-C induced MDR1 expression,"MDR1 expression [5]; Iso-H7, H-9 cells",No significant inhibition
same,weaker effect on protein kinases than H7,protein kinases,10 fold
"CCCCCCCCCCCCCC(=O)O[C@@H]1[C@@H](C)[C@@]2(O)[C@@H](C=C(CO)C[C@]3(O)C(=O)C(C)=C[C@@H]23)[C@@H]2C(C)(C)[C@]12OC(C)=O [TPA, 12-o-tetradecanoylphorbol-13-acetate]",increase of MDR1 expression after treatment,[6]; EJ bladder carcinoma cells,increase of MDR1 expression
same,induction of MDR1 mRNA and P-glycoprotein,[6]; H9 cells,efficiently induced readily detectable levels of MDR1 expression
same,P-glycoprotein expression after exposure,[6]; KG1 and KG1a cells (P-glycoprotein positive),large increase in their P-glycoprotein expression
same,increase of MDR1 expression after treatment,[6]; MCF-7 breast carcinoma cells,increase of MDR1 expression
same,levels of P-glycoprotein on the cell surface (UIC2),[6]; human PBL,markedly increased the levels of P-glycoprotein on the cell surface
same,MDR1 gene expression,[6]; normal human PBL and leukemia/solid tumor cell lines,increase MDR1 gene expression
same,P-glycoprotein expression after exposure,[7]; and LBRM 33 lymphoma,large increase in their P-glycoprotein expression
O=c1c(O)c(-c2ccc(O)c(O)c2)oc2cc(O)cc(O)c12 [quercetin],PKC inhibition,PKC,inhibition of PKC activity
same,effect on anti-tumor effect of cisplatin,"tumor [3]; i.p. 20 mg/kg, Grunicke et al.",potentiate the anti-tumor effect of cisplatin
same,effect on arsenite-induced increase in MDR1 expression,MDR1 expression [8],prevent an increase in MDR1 expression
CN[C@@H]1C[C@H]2O[C@@](C)([C@@H]1OC)n1c3ccccc3c3c4c(c5c6ccccc6n2c5c31)C(=O)NC4 [staurosporine],"P-glycoprotein expression, compound alone","[6]; KG1, KG1a (P-glycoprotein positive)",significant increase in P-glycoprotein expression
same,"induction of MDR1 expression, compound alone",[6]; P-glycoprotein-negative H9 cells,did not induce MDR1 expression
same,P-glycoprotein expression,[6]; some P-glycoprotein-positive cell lines (human; mouse lines also used),significantly increased P-glycoprotein expression
same,"P-glycoprotein expression, compound alone",[7]; mouse EL4 and LBRM 33 (P-glycoprotein positive),significant increase in P-glycoprotein expression
same,inhibition of DOG (diacylglycerol)-induced MDR1 expression,MDR1 expression [9]; H9 cells / P-glycoprotein-negative cells,completely abolished MDR1 induction; also recorded: prevent MDR1 induction
same,inhibition of TPA-induced MDR1 expression,MDR1 expression [9]; H9 cells,completely abolished MDR1 induction; also recorded: completely inhibited TPA-induced MDR1 expression; also recorded: prevent MDR1 induction
same,prevention of MDR1 induction by chemotherapeutic drugs,MDR1 expression [5],prevent MDR1 induction
same,inhibition of MDR1 induction by cytotoxic drugs,MDR1 expression [5]; concentration not stated,capable of inhibiting MDR1 induction by cytotoxic drugs
same,MRP expression,MRP expression,capable of inhibiting MRP expression; also recorded: strongly inhibited
CC[C@]1(O)C[C@@H]2CN(CCc3c([nH]c4ccccc34)[C@@](C(=O)OC)(c3cc4c(cc3OC)N(C)[C@H]3[C@@](O)(C(=O)OC)[C@H](OC(C)=O)[C@]5(CC)C=CCN6CC[C@]43[C@@H]65)C2)C1 [vinblastine],MDR1 induction,[10],"MDR1 induction, both at the mRNA and at the protein levels, was observed"
same,MDR1 mRNA expression,[10],induce MDR1 mRNA expression
same,Rh123 or DiOC2(3) efflux by treated cells,[10],3-10%
same,increase in resistance,K562 cells,2-3 fold
same,increase in the ID10 value,K562 cells,2-3 fold
